# Patent publication US6737383B1, “Herbicidal oxadiazolidines” (priority 1999, dated 2004)
# Key:
# [1] = test system: bedstraw; assay: Test B pre/postemergence bedstraw; type: in vivo, Galium aparine
# In short: (§1)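 Test chemicals in a non-phytotoxic solvent mixture with surfactant were sprayed preemergence onto planted seeds and postemergence onto plants 2 to 18 cm tall (1- to 4-leaf stage). After twelve to sixteen days in a greenhouse, injury was visually rated against untreated controls from 0 (no effect) to 10 (complete control).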
# [2] = test system: blackgrass; assay: Test B pre/postemergence blackgrass; type: in vivo, Alopecurus myosuroides
# In short: as §1
# [3] = test system: surinam grass; assay: Test B pre/postemergence surinam grass; type: in vivo, Brachiaria decumbens
# In short: as §1
# [4] = test system: cocklebur; assay: Test B pre/postemergence cocklebur; type: in vivo, Xanthium strumarium
# In short: as §1
# [5] = test system: corn; assay: Test B pre/postemergence corn; type: in vivo, Zea mays
# In short: as §1
# [6] = test system: crabgrass; assay: Test B pre/postemergence crabgrass; type: in vivo, Digitaria sanguinalis
# In short: as §1
# [7] = test system: soybean; assay: Test B pre/postemergence soybean; type: in vivo, Glycine max
# In short: as §1
# [8] = test system: sugar beet; assay: Test B pre/postemergence sugar beet; type: in vivo, Beta vulgaris
# In short: as §1
# [9] = test system: velvetleaf; assay: Test B pre/postemergence velvetleaf; type: in vivo, Abutilon theophrasti
# In short: as §1
# [10] = test system: wheat; assay: Test B pre/postemergence wheat; type: in vivo, Triticum aestivum
# In short: as §1
# [11] = test system: wild oat; assay: Test B pre/postemergence wild oat; type: in vivo, Avena fatua
# In short: as §1
# [12] = test system: purple nutsedge; assay: Test B pre/postemergence purple nutsedge; type: in vivo, Cyperus rotundus
# In short: as §1
# [13] = test system: rice; assay: Test B flood test rice; type: in vivo, Oryza sativa
# In short: (§2)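 Read-out is a visual response score from 0 (no effect) to 10 (complete control), assigned by comparison with untreated controls. Treatment was applied at the 2-leaf stage, and plants stayed in the greenhouse for twelve to sixteen days before scoring.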
# [14] = test system: smallflower flatsedge; assay: Test B flood test smallflower flatsedge; type: in vivo, Cyperus difformis
# In short: as §2
# [15] = test system: duck salad; assay: Test B flood test duck salad; type: in vivo, Heteranthera limosa
# In short: as §2
# [16] = test system: bamyardgrass; assay: Test B flood test barnyardgrass; type: in vivo, Echinochloa crus-galli
# In short: as §2
# [17] = Postemergence, Rate 125 g/ha, scale 0 to 10, 0 is no effect, 10 is complete control
# [18] = Postemergence, Rate 250 g/ha, scale 0 to 10, 0 is no effect, 10 is complete control
# [19] = Postemergence, Rate 500 g/ha, scale of 0 to 10 where 0 is no effect and 10 is complete control
# [20] = Preemergence, Rate 62 g/ha, scale 0 to 10 (0 no effect, 10 complete control)
# [21] = Preemergence, Rate 125 g/ha, scale of 0 to 10 where 0 is no effect and 10 is complete control
# [22] = Preemergence, Rate 250 g/ha, scale of 0 to 10 where 0 is no effect and 10 is complete control
# [23] = Preemergence, Rate 500 g/ha, scale 0 to 10, 0 is no effect, 10 is complete control
# [24] = Rate 62 g/ha, Postemergence, scale of 0 to 10 where 0 is no effect and 10 is complete control
# [25] = Preemergence, Rate 250 g/ha, scale 0 to 10, 0 is no effect, 10 is complete control
# [26] = Rate 62 g/ha, flood test species, Pre-emergence, visual evaluation after twelve to sixteen days
# [27] = Rate 125 g/ha, under heading Pre-emergence, flood test species, visual evaluation after twelve to sixteen days
# [28] = Rate 250 g/ha, Pre-emergence, flood-test species, scale 0 to 10, 0 is no effect, 10 is complete control
# [29] = Rate 500 g/ha, Pre-emergence, flood test species, scale 0 to 10 (0 no effect, 10 complete control)
smiles,measurement,setting,value
CC(C)N(C(=O)n1oc(=O)n(CC#N)c1=O)c1ccc(F)cc1 [Compound 395],"Plant response rating, Bedstraw",[1]; [17],0
same,"Plant response rating, Bedstraw",[1]; [18],0
same,Bedstraw plant response rating,[1]; [19],4
same,"Plant response rating, Bedstraw",[1]; [20],0
same,"Plant response rating, Bedstraw",[1]; [21],0
same,Bedstraw plant response rating,[1]; [22],0
same,Bedstraw plant response rating,[1]; [23],0
same,Bedstraw plant response rating,[1]; [24],0
same,"Plant response rating, Blackgrass",[2]; [17],0
same,"Plant response rating, Blackgrass",[2]; [18],0
same,Blackgrass plant response rating,[2]; [19],5
same,"Plant response rating, Blackgrass",[2]; [20],0
same,"Plant response rating, Blackgrass",[2]; [21],0
same,Blackgrass plant response rating,[2]; [22],0
same,Blackgrass plant response rating,[2]; [23],0
same,Blackgrass plant response rating,[2]; [24],0
same,"Plant response rating, B. signalgrass",[3]; [17],0
same,"Plant response rating, B. signalgrass",[3]; [18],0
same,B. signalgrass plant response rating,[3]; [19],0
same,"Plant response rating, B. signalgrass",[3]; [20],0
same,"Plant response rating, B. signalgrass",[3]; [21],0
same,B. signalgrass plant response rating,[3]; [22],0
same,B. signalgrass plant response rating,"[3]; Preemergence, Rate 500 g/ha, scale of 0 to 10 where 0 is no effect and 10 is complete control",0
same,B. signalgrass plant response rating,[3]; [24],0
same,"Plant response rating, Cocklebur",[4]; [17],0
same,"Plant response rating, Cocklebur",[4]; [18],0
same,Cocklebur plant response rating,[4]; [19],0
same,"Plant response rating, Cocklebur",[4]; [20],0
same,"Plant response rating, Cocklebur",[4]; [21],0
same,Cocklebur plant response rating,[4]; [25],0
same,Cocklebur plant response rating,[4]; [23],0
same,Cocklebur plant response rating,[4]; [24],0
same,"Plant response rating, Corn",[5]; [17],0
same,"Plant response rating, Corn",[5]; [18],0
same,Corn plant response rating,[5]; [19],0
same,"Plant response rating, Corn",[5]; [20],0
same,"Plant response rating, Corn",[5]; [21],0
same,Corn plant response rating,[5]; [25],0
same,Corn plant response rating,[5]; [23],0
same,Corn plant response rating,[5]; [24],0
same,"Plant response rating, Crabgrass",[6]; [17],2
same,"Plant response rating, Crabgrass",[6]; [18],2
same,Crabgrass plant response rating,[6]; [19],5
same,"Plant response rating, Crabgrass",[6]; [20],0
same,"Plant response rating, Crabgrass",[6]; [21],0
same,Crabgrass plant response rating,[6]; [25],0
same,Crabgrass plant response rating,[6]; [23],2
same,Crabgrass plant response rating,[6]; [24],0
same,"Plant response rating, Soybean",[7]; [18],1
same,Soybean plant response rating,[7]; [19],1
same,"Plant response rating, Soybean",[7]; [20],0
same,"Plant response rating, Soybean",[7]; [21],0
same,Soybean plant response rating,[7]; [25],0
same,Soybean plant response rating,[7]; [23],0
same,Soybean plant response rating,[7]; [24],0
same,"Plant response rating, Sugarbeets",[8]; [18],0
same,Sugarbeets plant response rating,[8]; [19],0
same,"Plant response rating, Sugarbeets",[8]; [20],0
same,"Plant response rating, Sugarbeets",[8]; [21],0
same,Sugarbeets plant response rating,[8]; [25],0
same,Sugarbeets plant response rating,[8]; [23],0
same,Sugarbeets plant response rating,[8]; [24],0
same,"Plant response rating, Velvetleaf",[9]; [18],2
same,Velvetleaf plant response rating,[9]; [19],2
same,"Plant response rating, Velvetleaf",[9]; [20],0
same,"Plant response rating, Velvetleaf",[9]; [21],0
same,Velvetleaf plant response rating,[9]; [25],0
same,Velvetleaf plant response rating,[9]; [23],0
same,Velvetleaf plant response rating,[9]; [24],0
same,Wheat plant response rating,[10]; [19],3
same,"Plant response rating, Wheat",[10]; [20],0
same,"Plant response rating, Wheat",[10]; [21],0
same,Wheat plant response rating,[10]; [25],0
same,Wheat plant response rating,[10]; [23],0
same,Wheat plant response rating,[10]; [24],0
same,Wild oats plant response rating,[11]; [19],3
same,"Plant response rating, Wild oats",[11]; [20],0
same,"Plant response rating, Wild oats",[11]; [21],0
same,Wild oats plant response rating,[11]; [25],0
same,Wild oats plant response rating,[11]; [23],0
same,Wild oats plant response rating,[11]; [24],0
same,"Plant response rating, Nutsedge",[12]; [18],0
same,Nutsedge plant response rating,[12]; [19],0
same,"Plant response rating, Nutsedge",[12]; [20],0
same,"Plant response rating, Nutsedge",[12]; [21],0
same,Nutsedge plant response rating,[12]; [25],0
same,Nutsedge plant response rating,[12]; [23],0
same,Nutsedge plant response rating,[12]; [24],0
same,"Plant response rating, Rice (0 to 10 scale, 0 is no effect, 10 is complete control)",[13]; [26],0
same,"Rice plant response rating (0 to 10 scale, 0 is no effect, 10 is complete control)",[13]; [27],0
same,Rice plant response rating,[13]; [28],0
same,Rice plant response rating,[13]; [29],0
same,"Plant response rating, S. Flatsedge (0 to 10 scale, 0 is no effect, 10 is complete control)",[14]; [26],0
same,"S. Flatsedge plant response rating (0 to 10 scale, 0 is no effect, 10 is complete control)",[14]; [27],0
same,S. Flatsedge plant response rating,[14]; [28],0
same,S. Flatsedge plant response rating,[14]; [29],0
same,"Plant response rating, Ducksalad (0 to 10 scale, 0 is no effect, 10 is complete control)",[15]; [26],0
same,"Ducksalad plant response rating (0 to 10 scale, 0 is no effect, 10 is complete control)",[15]; [27],0
same,Ducksalad plant response rating,[15]; [28],0
same,Ducksalad plant response rating,[15]; [29],0
same,"Plant response rating, Barnyardgrass (0 to 10 scale, 0 is no effect, 10 is complete control)",[16]; [26],0
same,"Barnyardgrass plant response rating (0 to 10 scale, 0 is no effect, 10 is complete control)",[16]; [27],0
same,Barnyardgrass plant response rating,[16]; [28],0
same,Barnyardgrass plant response rating,[16]; [29],0
